From patent US10428114B2, “Type polypeptide targeting tumours” (SICHUAN UNIVERSITY, priority 2015, dated 2019)
Converted amounts (≈) assume the structure as drawn. Bridges are numbered along the chain shown (N, C = ends). Where no end group is shown, it is not given here. [ ]: non-standard residue; d: D form. GABA = NCCCC(=O)O

What was measured:
4T1 tumours [1] = test: Evaluation of peptide-bond linked RGD-AAN peptides with doxorubicin, 4T1 model; assay type: in vivo, Balb/c mice; conditions: doxorubicin 5 mg/kg with peptide
Experimental: (§1) The dose of doxorubicin was 5 mg/kg for all groups. Two groups were administrated with above-mentioned peptides, respectively.

4T1 tumours [2] = test: Pharmacological effects of docetaxel and its micells with nRGD, 4T1 tumour model; assay type: in vivo
Experimental: Female Balb/c mice were inoculated with 5×10^5 4T1 cells and randomly divided into 5 groups: normal saline group (N. S), TXT group, docetaxel micells group (TXT-micells), docetaxel and nRGD coadministration group (TXT+nRGD), and docetaxel micells and nRGD coadministration group (TXT-micells+nRGD). The mice were injected with 15 mg/kg TXT equivalents of drugs or various formulations on day 8, day 10 and day 12.

[3] = system: CoCl2-treated 4T1 and M2 type macrophages, HUVEC, untreated 4T1 cells; test: Cell uptake experiments; assay type: cell-based; conditions: HUVEC with low legumain expression and untreated 4T1 cells
From the text: (§2) The targeting ability of nRGD was studied through in vitro and in vivo experiments by the inventors.

glioma = test: Glioma model survival; assay type: in vivo, mice; conditions: lycobetaine and octreotide liposomes, peptide as a mixture or on the liposome surface
From the text: Mice having glioma were randomly divided into 9 groups, 20 mice each: normal saline group (N.S), teniposide group, free lycobetaine and octreotide group (free IBT & OCT), lycobetaine and octreotide PEGylated liposomes group (PEG-Liposome), liposomes and iRGD coadministration group (PEG-Liposome+iRGD), liposomes and nRGD coadministration group (PEG-Liposome+nRGD), iRGD modified lycobetaine and octreotide PEGylated liposomes (iRGD-Liposome), nRGD modified lycobetaine and octreotide PEGylated liposomes (nRGD-Liposome), liposomes and nRGD coadministration group (blank). The mice were injected with 10 mg/kg IBT and […] OCT equivalents of drugs or various formulations on day 5, day 7, day 9, day 11 and day 12. As positive control group, mice were injected with 10 mg/kg teniposide on day 5, day 7, day 9, day 11 and day 12. […] The survival of the mice was recorded daily and the survival curve was plotted.

[4] = mouse, in vivo
4T1 tumours [5] = test: Screening of the administration manner of nRGD with doxorubicin, 4T1 model; assay type: in vivo, Balb/c mice; conditions: nRGD in combination with, prior to or after doxorubicin
Experimental: Female Balb/c mice were inoculated with 5×10^5 4 T1 cells and randomly divided into 3 groups. nRGD was administered in combination with doxorubicin, nRGD was administered prior to doxorubicin or after doxorubicin.

4T1 tumours [6] = test: Screening of the working concentration of nRGD with doxorubicin, 4T1 model; assay type: in vivo, Balb/c mice; conditions: doxorubicin 5 mg/kg; nRGD 1, 2, 4, 8, 10 mg/kg
Experimental: The dose of doxorubicin was 5 mg/kg, while the nRGD concentration was 1, 2, 4, 8, 10 mg/kg, respectively.

4T1 tumours [7] = test: Pharmacodynamics of paclitaxel and its albumin nanoparticles with nRGD, 4T1 tumour model; assay type: in vivo
Experimental: The mice were injected with 10 mg/kg PTX equivalents of drugs or various formulations on day 8, day 12 and day 16.

[8] = system: tumour vessels and tumour-associated macrophages (TAMs); test: In vivo targeting and tumour microenvironment study in 4T1 tumours (immunofluorescence, immunohistochemistry, RT-PCR, ELISA); parameters: species or system Balb/c mice
Experimental: (§3) Female Balb/c mice were inoculated with 5×10^5 4 T1 cells and randomly divided into 7 groups: saline group (NS), Dox group, PEG-Lipo-Dox group, iRGD-Lipo-Dox group, nRGD-Lipo-Dox group, Dox and nRGD coadministration group (Dox+nRGD), PEGylated liposome and nRGD coadministration group (PEG-Lipo-Dox+nRGD). The mice were injected with 5 mg/kg Dox equivalents of drugs or various formulations on day 8 and day 12. The single dose of the coadministration group included two shoots; one shoot was an equivalent drug or formulation of 5 mg/kg Dox, while the other shoot was 4.8 mg/kg nRGD. The volume and body weight of the mice were measured every two days. Some mice were sacrificed for mechanism and toxicity study on day 20. The average tumour growth inhibition (TGI) was calculated after tumour weighing: TGI=(1−(mean tumour weight of treatment group/(average tumour weight of control group))×100%. The antitumour effect and mechanism were studied by HE, immunohistochemistry, RT-PCR, immunofluorescence and ELISA. Plasma samples were collected for ELISA detection. Tissue samples were evaluated for toxicity by HE staining. The remaining mice were studied for survival time.

4T1 tumours [9] = test: Pharmacological effects of lycobetaine and its nanostructured lipid carriers with nRGD, 4T1 tumour model; assay type: in vivo
Experimental: Normal saline group (N. S), IBT group, lycobetaine nanostructured lipid carriers group (IBT-NLC), lycobetaine and nRGD coadministration group (IBT+nRGD), and lycobetaine nanostructured lipid carriers and nRGD coadministration group (IBT-NLC+nRGD). The mice were injected with 12 mg/kg IBT equivalents of drugs or various formulations on day 8, day 9 and day 10.

4T1 tumours [10] = test: Evaluation of 4Abu linked RGD-AAN peptides with doxorubicin, 4T1 model; assay type: in vivo, Balb/c mice; conditions: doxorubicin 5 mg/kg with peptide
Experimental: as §1

HUVEC = test: Median lethal dose (IC50) against HUVEC at 24 h; assay type: cell-based; conditions: n = 3
From the text: as §2

4T1 cells = test: Median lethal dose (IC50) against 4T1 cells at 24 h; assay type: cell-based
From the text: as §2

4T1 tumours [11] = test: Pharmacodynamics of doxorubicin and its liposomes in 4T1 tumour model; assay type: in vivo, Balb/c mice; conditions: day 20
Experimental: as §3

Raw 264.7 cells = test: Median lethal dose (IC50) against Raw 264.7 cells at 24 h; assay type: cell-based
From the text: as §2

legumain = biological target: T1, legumain (UniProt O89017 18-325, limits assumed); test: cell-based or functional assay
T1 sequence (looked up): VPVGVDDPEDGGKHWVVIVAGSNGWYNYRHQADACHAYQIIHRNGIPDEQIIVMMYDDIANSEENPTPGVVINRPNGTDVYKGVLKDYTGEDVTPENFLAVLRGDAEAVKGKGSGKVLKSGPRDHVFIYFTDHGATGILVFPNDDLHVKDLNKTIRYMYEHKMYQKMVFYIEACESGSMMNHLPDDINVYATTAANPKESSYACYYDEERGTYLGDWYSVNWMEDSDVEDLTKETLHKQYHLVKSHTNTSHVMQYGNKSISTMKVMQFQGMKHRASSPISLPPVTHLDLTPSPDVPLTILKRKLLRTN

Molecule: CRGDNAA (not fully specified (residue 4))
- efficacy of doxorubicin (4T1 tumours [1]): can improve the efficacy of doxorubicin

Molecule: CCRGDK(NAA)GPDC (CCRGDKGPDC) [nRGD]
- anti-tumour efficacy (4T1 tumours [2]; 15 mg/kg TXT equivalents day 8, 10, 12 with 4.8 mg/kg nRGD): increased the anti-tumour efficacy of TXT and TXT-micells
- body weight and toxicity (4T1 tumours [2]; mouse, in vivo): did not reduce the body weight of the mice or increase the toxicity
- cell uptake [3]: significantly reduced compared to iRGD
- life period (glioma): longer life period than the iRGD group
- weight of mice [4]: did not reduce the weight of mice
- anti-tumour effects of different manners of administration (4T1 tumours [5]): no significant differences
- Dox antitumour efficacy versus nRGD concentration (4T1 tumours [6]): positively correlated with Dox antitumour efficacy
- anti-tumour efficacy (4T1 tumours [7]; 10 mg/kg PTX equivalents day 8, 12, 16 with 4.8 mg/kg nRGD): increased the anti-tumour efficacy of PTX and PTX-BSA
- body weight and toxicity (4T1 tumours [7]; mouse, in vivo): did not reduce the body weight of the mice or increase the toxicity
- accumulation of Dox in the tumour site ([8]; tumour sections): increased the accumulation of Dox in the tumour site
- anti-tumour efficacy (4T1 tumours [9]; 12 mg/kg IBT equivalents day 8, 9, 10 with 4.8 mg/kg nRGD): increased the anti-tumour efficacy of PTX and PTX-BSA
- body weight and toxicity (4T1 tumours [9]; mouse, in vivo): did not reduce the body weight of the mice or increase the toxicity

Molecule: CRGD-4Abu-NAA (CRGD[GABA]NAA)
- efficacy of doxorubicin (4T1 tumours [10]): can improve the efficacy of doxorubicin

Molecule: c(RGDfK)AAN (cyclo(RGD[dF]KAAN); also: attachment point of AAN on cyclic RGDfK not given here)
- efficacy of doxorubicin (4T1 tumours [1]): can improve the efficacy of doxorubicin

Molecule: COc1cccc2c1C(=O)c1c(O)c3c(c(O)c1C2=O)C[C@@](O)(C(=O)CO)C[C@@H]3O[C@H]1C[C@H](N)[C@H](O)[C@H](C)O1 [Dox, doxorubicin]
- IC50 Dox, HUVEC (HUVEC): 18.12 ± 6.13 µg/mL (≈ 33.3 µM)
- IC50 Dox, 4T1 CoCl2 (4T1 cells; n = 3, CoCl2 stimulated): 16.54 ± 2.57 µg/mL (≈ 30.4 µM)
- IC50 Dox, 4T1 control (4T1 cells; n = 3, untreated cells): 26.56 ± 1.96 µg/mL (≈ 48.9 µM)
- number of regulatory T cells and MDSCs at the tumour sites ([8]; mouse, in vivo): increased
- tumour weight (4T1 tumours [11]; 5 mg/kg Dox equivalents on day 8 and day 12, coadministration with 4.8 mg/kg nRGD): 1592.0 ± 98.0 mg
- tumour growth inhibition rate (TGI) (4T1 tumours [11]; from tumour weight versus control group): 26.3%
- IC50 Dox, Raw264.7 IL-4 (Raw 264.7 cells; n = 3, IL-4 stimulated): 0.36 ± 0.07 µg/mL (≈ 0.662 µM)
- IC50 Dox, Raw264.7 LPS (Raw 264.7 cells; n = 3, LPS stimulated): 0.81 ± 0.22 µg/mL (≈ 1.49 µM)
- IC50 Dox, Raw264.7 Control (Raw 264.7 cells; n = 3, untreated cells): 0.41 ± 0.08 µg/mL (≈ 0.754 µM)

Molecule: c(RGDfK)-4Abu-AAN (cyclo(RGD[dF]K[GABA]AAN); not fully specified)
- efficacy of doxorubicin (4T1 tumours [10]): can improve the efficacy of doxorubicin

B1: nRGD polypeptide CCRGDK(NAA)GPDC, coupled to the surface of doxorubicin liposomes (nRGD-Lipo-Dox) (peptide)
peptide: CCRGDKGPDC
modifications: disulfide 2-10; not fully specified (residue 6); printed as CCRGDK(NAA)GPDC; also: coupled to Mal-PEG2000-DSPE liposome via cysteine
- Median lethal dose (IC50) of Dox, 4T1 cells stimulated with CoCl2, 24 h (legumain): 37.9 µg/mL
- Median lethal dose (IC50) of Dox, Raw264.7 cells stimulated with IL-4, 24 h (legumain): 23.5 µg/mL
